Assay [1] has as its system kidney tumor cells with PBMCs (1:5). Briefly: 3D tumor-immune co-culture, combination therapies, change in tumor cell numbers over 3 days (Example 19). As to conditions: normalized to Day 0, staurosporine 5 μM, axitinib 10 μM + pembrolizumab 10 μg/mL, n=3.
In assay [2] the test system is TNBC cell line xenografts (CDXs). The note with it: BRGS-HIS mice with TNBC CDXs; cited from earlier work.
For assay [3], the system named is 3D tumor-immune culture from a patient with renal cell carcinoma (tumor cells and matched PBMCs). Nature of the assay: 3D tumor-immune culture, Keytruda treatment compared to CD3 activation, live cell imaging over 5 days (Example 17). As to conditions: for tumor-containing hydrogel dome volume: 10 μg/mL Keytruda vs CD3-activated/control culture, evident by Day 1. Format: cell-based, human. The protocol:
A) An aliquot of pembrolizumab (25 mg/mL) was diluted in PBS to achieve a working stock of 1 mg/mL. 2 μL of this stock is added to the tumor-immune culture to achieve a final dose of 10 μg/mL. In parallel, 2 μL of a 1 mg/mL stock of human anti-IgG4 is added to a negative control tumor-immune culture.
A tumor sample and matched blood sample from a patient with renal cell carcinoma were prepared according to the foregoing Examples and methods. Briefly, PBMCs were isolated from blood and CD8^+ and CD8^− cells were separated, stained, and recombined as previously described. PBMCs were either cultured with 1 μg/mL anti-CD3 or 10 μg/mL Keytruda for 18 hours. Tumors were dissociated and stained and 10,000 cells were encapsulated in hydrogel as previously described. At TO, 100,000 PBMCs from each condition were added to tumor cultures. Live cell imaging, using confocal microscopy, was conducted each day for 5 days and images were analyzed using the disclosed computer vision pipeline. The presented data are from single replicates obtained from one experiment.

As to `CN[C@@H]1C[C@H]2O[C@@](C)([C@@H]1OC)n1c3ccccc3c3c4c(c5c6ccccc6n2c5c31)C(=O)NC4` [Staurosporine], the “change in tumor cell count” value in assay [1] is “decreased tumor cell count the most”.
Consider nivolumab, for which the “time after treatment until significant effect on tumor volume relative to vehicle control” value in assay [2] is no less than 10 days.
In the case of pembrolizumab [Keytruda], the “clustering of hydrogel-infiltrated CD8+ PBMCs” value in assay [3] (10 μg/mL Keytruda or 1 μg/mL anti-CD3, over 5 days, single replicate) is listed as “more clustering over time”. The “rate of dome volume shrinking” value in assay [3] (10 μg/mL Keytruda vs CD3-activated sample, Day 1) is recorded as “higher at Day 1”. In assay [3] (10 μg/mL Keytruda vs CD3-activated sample, evident by Day 2, single replicate), the “viability of tumor cells / tumor cell death” value is given as “increased tumor cell death”. Further, the “speed of CD8+ PBMCs infiltrated into the hydrogel (migration peak speed)” value in assay [3] (10 μg/mL Keytruda vs CD3-activated sample, over 5 days, single replicate) is “higher CD8^+ cell migration peak speed”. For the same compound, the “tumor-containing hydrogel dome volume” value in assay [3] (single replicate) is “dome volume shrinks more”; in assay [3] (single replicate, listed as Keytruda/pembrolizumab), “measurable, and noticeable, and may be statistically significantly different, by one day after adding the treatment”. Moreover, in assay [3] (10 μg/mL Keytruda vs CD3 activation, throughout 5 days, single replicate), the “clustering of hydrogel-infiltrated CD8- and CD8+ PBMCs together” value is listed as “clustered together more”. For the same compound, in assay [3] (PBMCs cultured 18 hours with 10 μg/mL Keytruda vs 1 μg/mL anti-CD3, evident as early as Day 1, single replicate), the “infiltration of CD8+ PBMCs into the tumor-containing hydrogel (absolute counts)” value is “increased infiltration of CD8^+ cells into the tumor-containing hydrogel”.

(Values after patent US20260056187A1, “METHODS OF FORMING PATIENT-DERIVED 3D CELL CULTURES FOR TRACKING LIVE IMMUNE-TUMOR INTERACTIONS” (OUROTECH, INC., priority 2022, published 2026).)
